Experimental data published in patent US12617762B2, “Carboxy derivatives with antiinflamatory properties” (Sitryx Therapeutics Limited, priority 2019, dated 2026).
Read-outs that look alike come from different tables or passages of the source.

Key:
[1] = tested on: IL-1β cytokine output from THP-1s; test: THP-1 AlphaLISA IL-1β cytokine inhibition assay; assay type: cell-based; conditions: for IC50: LPS then nigericin; for IL-1β lowering, result in words: THP-1 IL-1β assay
Description: Measuring Inhibitory Effects on IL-1β Cytokine Output from THP-1s
The cytokine inhibition profiles of compounds of formula (I) were determined in a differentiated THP-1 cell assay. All assays were performed in RPMI-1640 growth medium (Gibco), supplemented with 10% fetal bovine serum (FBS; Gibco), 1% penicillin-streptomycin and 1% sodium pyruvate unless specified otherwise. The IL-1β cytokine inhibition assay was run in a background of differentiated THP-1 cells as described below. All reagents described were from Sigma-Aldrich unless specified otherwise. Compounds were prepared as 10 mM DMSO stocks.
THP-1 cells were expanded as a suspension up to 80% confluence in appropriate growth medium. Cells were harvested, suspended, and treated with an appropriate concentration of phorbol 12-myristate 13-acetate (PMA) over a 72 hr period (37° C./5% CO2).
Following 72 hrs of THP-1 cell incubation, cellular medium was removed and replaced with fresh growth media containing 1% of FBS. Working concentrations of compounds were prepared separately in 10% FBS treated growth medium and pre-incubated with the cells for 30 minutes (37° C./5% CO2). Following the 30 minute compound pre-incubation, THP-1s were treated with an appropriate concentration of LPS and the cells were subsequently incubated for a 24 hr period (37° C./5% CO2). An appropriate final concentration of Nigericin was then dispensed into the THP-1 plates and incubated for 1 hour (37° C./5% CO2) before THP-1 supernatants were harvested and collected in separate polypropylene 96-well holding plates.
Reagents from an IL-1β and IL-6 commercial kit (Perkin Elmer) were prepared and run according to the manufacturer's instructions. Subsequently, fluorescence signal detection in a microplate reader was measured (EnVision® Multilabel Reader, Perkin Elmer).
Percentage inhibition was calculated per cytokine by normalising the sample data to the high and low controls used within each plate (+/− LPS respectively).

[2] = Hepatocyte stability assay, mouse; assay type: in vitro ADME; conditions: mouse, hepatocytes; for hepatocyte CLint at 10 μM: Hepatocyte stability Clint; for half-life at 10 μM: Hepatocyte stability T½
Source text: (§1) Defrosted cryo-preserved hepatocytes (viability >70%) were used to determine the metabolic stability of a compound via calculation of intrinsic clearance (CIint; a measure of the removal of a compound from the liver in the absence of blood flow and cell binding). Clearance data are particularly important for in vitro work as they can be used in combination with in vivo data to predict the half-life and oral bioavailability of a drug.
(§2) The metabolic stability in hepatocytes assay involves a time-dependent reaction using both positive and negative controls. The cells were pre-incubated at 37° C. then spiked with test compound (and positive control); samples were taken at pre-determined time intervals and were analysed to monitor the change in concentration of the initial drug compound over 60 minutes. A buffer incubation reaction (with no hepatocytes present) acted as a negative control and two cocktail solutions, containing compounds with known high and low clearance values (verapamil/7-hydroxycoumarin and propranolol/diltiazem), acted as positive controls. • 1. The assay was run with a cell concentration of 0.5×10^6 cells/mL in Leibovitz buffer. • 2. All compounds and controls were run in duplicate. • 3. Compound concentration was 10 μM. • 4. All compounds and controls were incubated with both cells and buffer to show turnover was due to hepatic metabolism. • 5. All wells on the incubation plate had 326.7 μL of either cells or buffer added. • 6. Prior to assay, cell and buffer-only incubation plates were preincubated for 10 mins at 37° C. • 7. The assay was initiated by adding compounds, 3.3 μL of 1 mM in 10% DMSO—90% Buffer; final DMSO concentration was 0.1%. • 8. Samples were taken at regular timepoints (0, 5, 10, 20, 40, 60 min) until 60 mins. • 9. Sample volume was 40 μL and was added to 160 μL of crash solvent (acetonitrile with internal standard) and stored on ice. • 10. At the end of the assay, the crash plates were centrifuged at 3500 rpm for 20 mins at 4° C. • 11. 80 μL of clear supernatant was removed and mixed with 80 μL of deionised water before being analysed by LC-MS/MS.
(§3) Raw LC-MS/MS data was exported to, and analysed in, Microsoft Excel for determination of intrinsic clearance. The percentage remaining of a compound was monitored using the peak area of the initial concentration as 100%. Intrinsic clearance and half-life values were calculated using a graph of the natural log of percentage remaining versus the time of reaction in minutes.

[3] = Hepatocyte stability assay, human; assay type: in vitro ADME; conditions: human, hepatocytes; for hepatocyte CLint at 10 μM: Hepatocyte stability Clint; for half-life at 10 μM: Hepatocyte stability T½
Source text: as §1, §2, §3

[4] = tested on: NRF2 (nuclear factor erythroid 2-related factor 2); test: NRF2 +/-GSH activation assay (DiscoverX PathHunter NRF2 translocation kit, U2OS cells); assay type: cell-based; conditions: for NRF2 activation +GSH Emax / NRF2 activation −GSH Emax: normalised to DMF high control
Description: Measuring Compound Activation Effects on the Anti-Inflammatory Transcription Factor NRF2 in DiscoverX PathHunter NRF2 Translocation Kit
Potency and efficacy of compounds of formula (I) against the target of interest to activate NRF2 (nuclear factor erythroid 2-related factor 2) were determined using the PathHunter NRF2 translocation kit (DiscoverX). The NRF2 translocation assay was run using an engineered recombinant cell line, utilising enzyme fragment complementation to determine activation of the Keap1-NRF2 protein complex and subsequent translocation of NRF2 into the nucleus. Enzyme activity was quantified using a chemiluminescent substrate consumed following the formation of a functional enzyme upon PK-tagged NRF2 translocation into the nucleus.
The assay was run under both +/−GSH (glutathione) conditions to determine the sensitivity of the compounds' NRF2-activating abilities to attenuation by GSH.
Additionally, a defined concentration of DMF was used as the ‘High’ control to normalise test compound activation responses to.
U2OS PathHunter eXpress cells were thawed from frozen prior to plating. Following plating, U2OS cells were incubated for 24 hrs (37° C./5% CO2) in commercial kit provided cell medium.
Following 24 hrs of U2OS incubation, cells were directly treated with an appropriate final concentration of compound, for −GSH conditions or, for +GSH conditions, an intermediate plate containing 6× working concentrations of compound stocks was prepared in a 6 mM working concentration of GSH solution (solubilised in sterile PBS). Following a 30 minute compound-GSH pre-incubation (37° C./5% CO2) for +GSH treatment, plated U2OS cells were incubated with an appropriate final concentration of compound and GSH.
Following compound (+/−GSH) treatment, the U2OS plates were incubated for a further 6 hours (37° C./5% CO2) before detection reagent from the PathHunter NRF2 commercial kit was prepared and added to test plates according to the manufacturer's instructions. Subsequently, the luminescence signal detection was measured in a microplate reader (PHERAstar®, BMG Labtech).
Percentage activation was calculated by normalising the sample data to the high and low controls used within each plate (+/−DMF).

[5] = Homo sapiens, THP-1, differentiated THP-1 cells
[6] = +GSH, 30 minute compound-GSH pre-incubation, read-out: NRF2 activation +GSH EC50
[7] = −GSH, U2OS PathHunter cells, 6 hours compound treatment, read-out: NRF2 activation −GSH EC50

| Structure (SMILES) | IC50 [1, 5] [µM] | hepatocyte CLint at 10 μM [2] [µL/min/1e6 cells] | half-life at 10 μM [2] [min] | hepatocyte CLint at 10 μM [3] [µL/min/1e6 cells] | half-life at 10 μM [3] [min] | IL-1β lowering, result in words [1] | EC50 [4, 6] [µM] | NRF2 activation +GSH Emax ([4]; +GSH) [%] | EC50 [4, 7] [µM] | NRF2 activation −GSH Emax ([4]; −GSH) [%] | IC50 ([1]; differentiated THP-1 cells) [µM] |
| --- | --- | --- | --- | --- | --- | --- | --- | --- | --- | --- | --- |
| C=C(Cc1nc(Cc2ccc(C3CCC3)cc2)no1)C(=O)O [Example 128, 2-((3-(4-cyclobutylbenzyl)-1,2,4-oxadiazol-5-yl)methyl)acrylic acid] | 26.3 | 256 | 6 | 49 | 30 | – | – | – | – | – | – |
| C=C(Cc1nc(-c2ccc(OCCCC)c(F)c2)no1)C(=O)O [Example 129, 2-((3-(4-butoxy-3-fluorophenyl)-1,2,4-oxadiazol-5-yl)methyl)acrylic acid] | 20.6 | > 460 | < 3 | 67 | 22 | – | – | – | – | – | – |
| C=C(Cc1nc(C(F)(F)c2ccc(I)cc2)no1)C(=O)O [Example 120, 2-((3-(difluoro(4-iodophenyl)methyl)-1,2,4-oxadiazol-5-yl)methyl)acrylic acid] | 3.6 | 66 | 20 | 10 | 154 | – | – | – | – | – | – |
| C=C(Cc1nc(C23CC4CC(CC(C4)C2)C3)no1)C(=O)O [Example 66, 2-((3-(adamantan-1-yl)-1,2,4-oxadiazol-5-yl)methyl)acrylic acid] | > 100 | – | – | – | – | not effective | > 100 | 14 | > 100 | 23 | – |
| C=C(Cc1nc(-c2ccc(OC3CCC3)cc2)no1)C(=O)O [Example 142, 2-((3-(4-cyclobutoxyphenyl)-1,2,4-oxadiazol-5-yl)methyl)acrylic acid] | > 100 | – | – | – | – | – | 26.9 | 168 | 23.3 | 189 | – |
| C=C(Cc1nc(Cc2cccc(CCCC)c2)no1)C(=O)O [Example 29, 2-((3-(3-butylbenzyl)-1,2,4-oxadiazol-5-yl)methyl)acrylic acid] | 22.8 | – | – | – | – | – | 11.2 | 183 | 7.6 | 179 | – |
| C=C(Cc1noc(-c2ccc(OCCCC)cc2)n1)C(=O)O [Example 96, 2-((5-(4-butoxyphenyl)-1,2,4-oxadiazol-3-yl)methyl)acrylic acid] | > 31.6 | – | – | – | – | – | 12.4 | 115 | 11.7 | 170 | – |
| C=C(Cc1nc(C2(c3ccc([S+]([O-])C(F)(F)F)cc3)CC2)no1)C(=O)O (stereo not drawn) [Example 157, 2-((3-(1-(4-((trifluoromethyl)sulfinyl)phenyl)cyclopropyl)-1,2,4-oxadiazol-5-yl)methyl)acrylic acid] | > 100 | – | – | – | – | – | > 100 | −5 | > 100 | 41 | – |
| C=C(Cc1nc(-c2ccc(O[C@H](C)CC)cc2)no1)C(=O)O [Example 144, (R)-2-((3-(4-(sec-butoxy)phenyl)-1,2,4-oxadiazol-5-yl)methyl)acrylic acid] | – | – | – | – | – | – | 31.1 | 139 | 28.4 | 167 | > 100 |
| C=C(Cc1nc(CCCCCCC(F)(F)CF)no1)C(=O)O [Example 47, 2-((3-(7,7,8-trifluorooctyl)-1,2,4-oxadiazol-5-yl)methyl)acrylic acid] | > 100 | – | – | – | – | not effective | 47.1 | 86 | 41.4 | 131 | – |
| C=C(Cc1ncn(CCCCCCCC)n1)C(=O)O [Example 13, 2-((1-octyl-1H-1,2,4-triazol-3-yl)methyl)acrylic acid] | > 100 | – | – | – | – | not effective | 48.6 | 51 | 43.1 | 54 | – |
| C=C(Cc1noc(Cc2ccc(CCCC)cc2)n1)C(=O)O [Example 95, 2-((5-(4-butylbenzyl)-1,2,4-oxadiazol-3-yl)methyl)acrylic acid] | > 31.6 | – | – | – | – | – | 3.9 | 183 | 2.8 | 217 | – |
| C=C(Cc1nc(-c2ccc(SC(F)(F)F)cc2)no1)C(=O)O [Example 158, 2-((3-(4-((trifluoromethyl)thio)phenyl)-1,2,4-oxadiazol-5-yl)methyl)acrylic acid] | > 31.6 | – | – | – | – | – | 2.9 | 196 | 2.6 | 189 | – |
| C=C(Cc1nc(C(F)(F)c2ccc(F)cc2)no1)C(=O)O [Example 125, 2-((3-(difluoro(4-fluorophenyl)methyl)-1,2,4-oxadiazol-5-yl)methyl)acrylic acid] | > 100 | – | – | – | – | – | > 100 | 26 | > 100 | 37 | – |
| C=C(Cc1nc(C2CCCCCC2)no1)C(=O)O [Example 65, 2-((3-cycloheptyl-1,2,4-oxadiazol-5-yl)methyl)acrylic acid] | > 100 | – | – | – | – | not effective | > 100 | 17 | > 100 | 50 | – |
| C=C(Cc1nc(-c2ccc(OCCC)c(Cl)c2)no1)C(=O)O [Example 130, 2-((3-(3-chloro-4-propoxyphenyl)-1,2,4-oxadiazol-5-yl)methyl)acrylic acid] | > 100 | – | – | – | – | – | 37.4 | 129 | 36.5 | 177 | – |
